Experimental data: BindingDB's records for doi:10.1111/cbdd.12902 (Shahid Bahonar University of Kerman, 2017)
pIC50: −log10 of the molar value.

Legend:
Acetylcholinesterase = Acetylcholinesterase (Electrophorus electricus, UniProt O42275); assay: Cholinesterases Inhibition Assay
Procedure: (§1) The stock solutions of the target compounds were prepared in a mixture of DMSO (1 ml) and ethanol (9 ml) and diluted with 0.1 MKH2PO4/K2HPO4 buffer (pH 8.0) to obtain final concentrations. […] of substrate (acetylthiocholine iodide 0.075 m) was added to the test solution to obtain final concentration of […]. All experiments were performed based on the previously described method.[Nadri et al., Bioorg. […] Spectrophotometric measurements were performed on a UV Unico double-beam spectrophotometer. The same method was also taken for BuChE inhibition assay.

[1] = molecular target: Carboxylic ester hydrolase (Equus caballus, UniProt Q9N1N9); assay: Cholinesterases Inhibition Assay
Chain of Carboxylic ester hydrolase (Q9N1N9 whole entry): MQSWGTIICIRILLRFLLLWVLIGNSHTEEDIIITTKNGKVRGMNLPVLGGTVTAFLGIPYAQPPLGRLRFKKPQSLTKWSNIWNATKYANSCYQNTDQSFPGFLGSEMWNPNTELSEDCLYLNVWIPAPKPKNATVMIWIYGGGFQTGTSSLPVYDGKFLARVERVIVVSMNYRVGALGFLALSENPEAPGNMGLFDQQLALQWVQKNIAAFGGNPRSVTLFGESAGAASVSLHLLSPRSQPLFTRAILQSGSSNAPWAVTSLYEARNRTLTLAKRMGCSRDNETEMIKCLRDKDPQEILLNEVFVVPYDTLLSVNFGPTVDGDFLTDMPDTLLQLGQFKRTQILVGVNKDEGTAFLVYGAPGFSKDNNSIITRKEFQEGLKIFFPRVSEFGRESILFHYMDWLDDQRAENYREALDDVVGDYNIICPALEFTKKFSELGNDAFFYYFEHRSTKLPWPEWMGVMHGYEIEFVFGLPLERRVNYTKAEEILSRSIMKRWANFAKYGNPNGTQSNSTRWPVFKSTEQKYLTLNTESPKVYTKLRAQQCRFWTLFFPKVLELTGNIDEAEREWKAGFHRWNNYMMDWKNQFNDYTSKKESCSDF
Procedure: as §1

Chain of Acetylcholinesterase (O42275 whole entry): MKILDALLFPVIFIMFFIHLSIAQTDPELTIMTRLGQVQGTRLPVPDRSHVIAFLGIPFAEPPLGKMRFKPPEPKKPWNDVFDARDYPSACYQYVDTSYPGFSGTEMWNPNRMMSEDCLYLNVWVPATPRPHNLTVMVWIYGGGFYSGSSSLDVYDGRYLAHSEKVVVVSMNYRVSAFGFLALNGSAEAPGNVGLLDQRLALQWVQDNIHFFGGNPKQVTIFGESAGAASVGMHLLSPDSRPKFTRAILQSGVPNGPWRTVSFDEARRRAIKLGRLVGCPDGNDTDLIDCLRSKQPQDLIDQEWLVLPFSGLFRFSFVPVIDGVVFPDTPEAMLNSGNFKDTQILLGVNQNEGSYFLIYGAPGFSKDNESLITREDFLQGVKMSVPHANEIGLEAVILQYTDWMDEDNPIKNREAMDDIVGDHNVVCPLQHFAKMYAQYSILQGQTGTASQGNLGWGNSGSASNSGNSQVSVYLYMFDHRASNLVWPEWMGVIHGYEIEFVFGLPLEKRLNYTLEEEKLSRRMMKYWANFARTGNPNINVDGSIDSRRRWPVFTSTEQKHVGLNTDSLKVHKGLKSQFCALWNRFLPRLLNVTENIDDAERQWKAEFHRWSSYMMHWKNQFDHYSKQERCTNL

Row | SMILES | pIC50 (Acetylcholinesterase) | pIC50 [1]
1 | c1ccc2oc(-c3ccc(CN4CCOCC4)cc3)nc2c1 [2-(4-(Morpholinomethyl)phenyl)benzo[d]oxazole (6c)] | 4.70 | < 4.00
2 | CCN(Cc1ccccc1)Cc1ccc(-c2nc3ccccc3o2)cc1 [N-((4-(benzo[d]oxazol-2-yl)phenyl)methyl)-N-benzylethanamine (6m)] | 4.25 | < 4.00
3 | c1ccc(N2CCN(Cc3ccc(-c4nc5ccccc5o4)cc3)CC2)cc1 [2-(4-((4-Phenylpiperazine-1-yl)methyl)phenyl)benzo[d]oxazole (6h)] | < 4.00 | < 4.00
4 | c1ccc(CN2CCN(Cc3ccc(-c4nc5ccccc5o4)cc3)CC2)cc1 [2-(4-((4-Benzylpiperazin-1-yl)methyl)phenyl)benzo[d]oxazole (6i)] | < 4.00 | < 4.00
5 | c1ccc2oc(-c3ccc(CN4CCNCC4)cc3)nc2c1 [2-(4-((Piperazin-1-yl)methyl)phenyl)benzo[d]oxazole (6e)] | 5.46 | 4.67
6 | c1ccc(CN2CCC(NCc3ccc(-c4nc5ccccc5o4)cc3)CC2)cc1 [N-((4-(benzo[d]oxazol-2-yl)phenyl)methyl)-1-benzylpiperidin-4-amine (6n)] | 5.11 | 4.30
7 | c1ccc(CC2CCN(Cc3ccc(-c4nc5ccccc5o4)cc3)CC2)cc1 [2-(4-((4-Benzylpiperidin-1-yl)methyl)phenyl)benzo[d]oxazole (6b)] | < 4.00 | < 4.00
8 | CN1CCN(Cc2ccc(-c3nc4ccccc4o3)cc2)CC1 [2-(4-((4-Methylpiperazin-1-yl)methyl)phenyl)benzo[d]oxazole (6f)] | 4.21 | < 4.00
9 | c1ccc2oc(-c3ccc(CN4CCCCC4)cc3)nc2c1 [2-(4-((Piperidin-1-yl)methyl)phenyl)benzo[d]oxazole (6a)] | 5.99 | 5.18
10 | CCN1CCN(Cc2ccc(-c3nc4ccccc4o3)cc2)CC1 [2-(4-((4-Ethylpiperazin-1-yl)methyl)phenyl)benzo[d]oxazole (6g)] | 4.42 | < 4.00
11 | CN(Cc1ccccc1)Cc1ccc(-c2nc3ccccc3o2)cc1 [(4-(Benzo[d]oxazol-2-yl)phenyl)-N-benzyl-N-methylmethanamine (6l)] | 4.51 | < 4.00
12 | c1ccc2oc(-c3ccc(CN4CCSCC4)cc3)nc2c1 [2-(4-(Thiomorpholinomethyl)phenyl)benzo[d]oxazole (6d)] | 5.59 | 4.77
13 | c1ccc2oc(-c3ccc(CN4CCCC4)cc3)nc2c1 [2-(4-((Pyrrolidin-1-yl)methyl)phenyl)benzo[d]oxazole (6j)] | 5.87 | 5.09
14 | c1ccc(CNCc2ccc(-c3nc4ccccc4o3)cc2)cc1 [(4-(Benzo[d]oxazol-2-yl)phenyl)-Nbenzylmethylamine (6k)] | 4.59 | < 4.00
